# Test results reported in PubChem BioAssay AID2651 (Vanderbilt High Throughput Screening Facility, 2010).
# Activity calls are given as the source filed them.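 The calls were made as follows: active = mean EC50 from three replicate curves at or below a set limit; inactive = mean EC50 above a set limit.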
# Target: Muscarinic acetylcholine receptor M1 (Rattus norvegicus) (UniProt P08482)
# Assay: rat M1 PAM analog potency, SAR follow-up, cell-based, calcium mobilization, CHO-K1 (AID 2651)
# Settings: CHO-K1 rat M1, calcium Fluo-4, ACh EC20 potentiation
# Muscarinic acetylcholine receptor M1 (Rattus norvegicus), sequence (P08482 whole entry, looked up): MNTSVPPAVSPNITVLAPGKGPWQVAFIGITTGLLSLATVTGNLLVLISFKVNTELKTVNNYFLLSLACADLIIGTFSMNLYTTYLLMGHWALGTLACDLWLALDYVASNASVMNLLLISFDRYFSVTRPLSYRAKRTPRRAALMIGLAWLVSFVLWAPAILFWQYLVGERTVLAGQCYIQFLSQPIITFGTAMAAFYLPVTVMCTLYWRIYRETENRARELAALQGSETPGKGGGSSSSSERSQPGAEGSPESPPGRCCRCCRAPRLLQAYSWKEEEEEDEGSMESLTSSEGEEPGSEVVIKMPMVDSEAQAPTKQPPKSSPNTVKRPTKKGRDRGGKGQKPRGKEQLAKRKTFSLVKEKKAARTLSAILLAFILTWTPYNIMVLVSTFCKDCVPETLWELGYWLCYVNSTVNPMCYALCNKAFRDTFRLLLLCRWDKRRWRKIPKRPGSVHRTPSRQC
row,EC50,SMILES
1,> 30 µM (inactive),Cc1cc(NC(=O)CS(=O)(=O)c2cn(Cc3ccc(F)c(Cl)c3)c3ccccc23)no1
2,> 30 µM (inactive),Cc1cc(NC(=O)CS(=O)(=O)c2cn(Cc3ccc(F)c(-c4ccn[nH]4)c3)c3ccccc23)no1
3,> 30 µM (inactive),Cc1cc(NC(=O)CS(=O)(=O)c2cn(Cc3cccc(C(F)(F)F)c3)c3ccccc23)no1
4,> 30 µM (inactive),Cc1cc(NC(=O)CS(=O)(=O)c2cn(Cc3ccc(Cl)c(Cl)c3)c3ccccc23)no1
5,> 30 µM (inactive),Cc1cc(NC(=O)CS(=O)(=O)c2cn(Cc3cccc(-c4ccccc4)c3)c3ccccc23)no1
